Molecules are shown by their SMILES.

For orientation: IC50 means the point on the concentration scale where inhibition reaches its midpoint. For orientation: pKi means the Ki on a negative log10 scale, so that one unit is a factor of ten. Broadly, the residual activity is the share of the control activity or signal that is left under treatment. Low readings indicate a large loss of activity, high ones a small loss of activity.

For the first experiment, the target named is T1, GABA transporter 4 (Mus musculus, UniProt P31650).
T1 sequence (P31650 whole entry): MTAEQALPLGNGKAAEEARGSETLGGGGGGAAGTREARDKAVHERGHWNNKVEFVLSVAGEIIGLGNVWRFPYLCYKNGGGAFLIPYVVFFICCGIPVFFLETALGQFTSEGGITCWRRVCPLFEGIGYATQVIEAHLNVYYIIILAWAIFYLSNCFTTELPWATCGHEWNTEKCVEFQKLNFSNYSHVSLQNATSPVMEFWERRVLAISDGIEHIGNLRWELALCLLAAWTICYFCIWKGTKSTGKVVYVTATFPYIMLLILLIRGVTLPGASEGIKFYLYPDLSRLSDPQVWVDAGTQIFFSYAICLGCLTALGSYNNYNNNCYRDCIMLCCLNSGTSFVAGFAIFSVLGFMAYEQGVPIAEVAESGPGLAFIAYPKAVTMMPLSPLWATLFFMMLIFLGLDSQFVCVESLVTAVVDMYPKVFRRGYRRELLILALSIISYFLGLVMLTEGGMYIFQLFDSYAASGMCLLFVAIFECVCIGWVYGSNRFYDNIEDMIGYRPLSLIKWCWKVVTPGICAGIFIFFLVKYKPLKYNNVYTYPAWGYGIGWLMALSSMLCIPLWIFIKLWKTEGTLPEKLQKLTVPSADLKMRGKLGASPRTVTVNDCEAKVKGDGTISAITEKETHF
Put plainly: Inhibition of mouse GAT4 expressed in human HEK293 cell line assessed as inhibition of [3H]GABA uptake measured after 40 mins by […]. Type of experiment: cell-based.
Turning to `CN(CCC=C1c2ccccc2-c2ccccc21)C(CCO)C(=O)NCc1ccc(Cl)cc1` (stereo unspecified), the IC50 was 44.7 µM.
The same measure, in the same setting: under `CN(CCC=C1c2ccccc2-c2ccccc21)C(CCO)C(=O)NCc1ccc(F)cc1` (stereo unspecified) stands 35.5 µM.
On the same count and under the same terms, next, `Cc1ccc(CNC(=O)C(CCN)N(C)CCC=C2c3ccccc3CCc3ccccc32)cc1` (stereo unspecified): 6.46 µM.
Still for that read-out and setting: next, `CN(CCC=C1c2ccccc2CCc2ccccc21)C(CCN)C(=O)NCc1ccccc1` (stereo unspecified): 4.68 µM; `CN(CCC=C1c2ccccc2-c2ccccc21)C(CCO)C(=O)NCc1ccccc1Cl` (stereo unspecified): 26.9 µM; `Cc1ccc(CNC(=O)C(CCO)N(C)CCC=C2c3ccccc3C=Cc3ccccc32)cc1` (stereo unspecified): 9.12 µM.
Turning to `CN(CCC=C1c2ccccc2C=Cc2ccccc21)C(CCO)C(=O)NCc1ccccc1Cl` (stereo unspecified), the IC50 was 9.55 µM.
On the same count and under the same terms, under `Cc1ccc(CNC(=O)C(CCO)N(C)CCC=C2c3ccccc3-c3ccccc32)cc1` (stereo unspecified) stands 30.9 µM.
Same read-out and setting: under `CN(CCC=C1c2ccccc2CCc2ccccc21)C(CCO)C(=O)NCc1ccccc1` (stereo unspecified) stands 17 µM; under `CN(CCC=C1c2ccccc2-c2ccccc21)C(CCO)C(=O)NCc1ccccc1` (stereo unspecified), 25.1 µM.
Still for that read-out and setting: next, `CN(CCC=C1c2ccccc2CCc2ccccc21)C(CCO)C(=O)NCc1ccc(Cl)cc1` (stereo unspecified): 15.8 µM; `CC(=O)NCCC(C(=O)NCc1ccccc1)N(C)CCC=C1c2ccccc2CCc2ccccc21` (stereo unspecified): 17.8 µM.

For another experiment, the target named is T2, Sodium- and chloride-dependent GABA transporter 1 (Mus musculus, UniProt P31648). Nature of the experiment: Inhibition of NO711 binding to mouse GAT1 expressed in human HEK293 cell line by MS binding assay.
Consider `CN(CCC=C(c1ccccc1)c1ccccc1)C(CCN)C(=O)NCc1ccccc1Cl` (stereo unspecified), for which the pKi came to 4.96.
On the same count and under the same terms, under `Cc1ccc(CNC(=O)C(CCN)N(C)CCC=C2c3ccccc3CCc3ccccc32)cc1` (stereo unspecified) stands 5.14; under `CN(CCC=C1c2ccccc2CCc2ccccc21)C(CCN)C(=O)NCc1ccccc1` (stereo unspecified), 4.78.

The target of another experiment is T3, GABA transporter 2 (Mus musculus, UniProt P31651).
T3 sequence (P31651 whole entry): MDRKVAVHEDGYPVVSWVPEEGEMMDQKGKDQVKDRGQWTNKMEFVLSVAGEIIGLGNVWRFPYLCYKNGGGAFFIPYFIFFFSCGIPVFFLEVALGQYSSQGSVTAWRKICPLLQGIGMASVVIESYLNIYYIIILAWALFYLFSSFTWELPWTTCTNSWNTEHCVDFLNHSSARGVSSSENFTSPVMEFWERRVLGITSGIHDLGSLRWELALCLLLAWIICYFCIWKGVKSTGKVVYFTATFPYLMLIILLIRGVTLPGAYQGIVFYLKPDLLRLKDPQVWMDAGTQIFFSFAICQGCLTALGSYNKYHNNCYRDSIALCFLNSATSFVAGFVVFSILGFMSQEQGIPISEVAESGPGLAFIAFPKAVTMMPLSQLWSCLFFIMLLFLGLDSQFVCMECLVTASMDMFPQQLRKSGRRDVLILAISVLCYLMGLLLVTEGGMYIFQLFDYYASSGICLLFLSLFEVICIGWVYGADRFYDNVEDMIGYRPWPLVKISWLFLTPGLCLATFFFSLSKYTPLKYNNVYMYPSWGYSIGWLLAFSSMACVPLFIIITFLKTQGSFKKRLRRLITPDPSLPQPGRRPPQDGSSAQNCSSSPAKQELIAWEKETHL
Nature of the experiment: Inhibition of mouse GAT2 expressed in human HEK293 cell line assessed as inhibition of [3H]GABA uptake measured after 40 mins by […]. Type of experiment: cell-based.
Take `CN(CCC=C1c2ccccc2-c2ccccc21)C(CCO)C(=O)NCc1ccc(Cl)cc1` (stereo unspecified): the IC50 was 32.4 µM.
Take `CN(CCC=C1c2ccccc2-c2ccccc21)C(CCO)C(=O)NCc1ccc(F)cc1` (stereo unspecified): the IC50 was 25.7 µM.
The same measure, in the same setting: under `Cc1ccc(CNC(=O)C(CCN)N(C)CCC=C2c3ccccc3CCc3ccccc32)cc1` (stereo unspecified) stands 11.2 µM.
With `CN(CCC=C1c2ccccc2CCc2ccccc21)C(CCN)C(=O)NCc1ccccc1` (stereo unspecified), the IC50 was 9.55 µM.
On the same count and under the same terms, under `CN(CCC=C1c2ccccc2-c2ccccc21)C(CCO)C(=O)NCc1ccccc1Cl` (stereo unspecified) stands 25.7 µM; under `Cc1ccc(CNC(=O)C(CCO)N(C)CCC=C2c3ccccc3C=Cc3ccccc32)cc1` (stereo unspecified), 9.77 µM; under `CN(CCC=C1c2ccccc2C=Cc2ccccc21)C(CCO)C(=O)NCc1ccccc1Cl` (stereo unspecified), 6.76 µM.
Consider `Cc1ccc(CNC(=O)C(CCO)N(C)CCC=C2c3ccccc3-c3ccccc32)cc1` (stereo unspecified), for which the IC50 is 30.2 µM.
Still for that read-out and setting: under `CN(CCC=C1c2ccccc2CCc2ccccc21)C(CCO)C(=O)NCc1ccccc1` (stereo unspecified) stands 9.12 µM.
The same measure, in the same setting: under `CN(CCC=C1c2ccccc2-c2ccccc21)C(CCO)C(=O)NCc1ccccc1` (stereo unspecified) stands 17.8 µM; under `CN(CCC=C1c2ccccc2CCc2ccccc21)C(CCO)C(=O)NCc1ccc(Cl)cc1` (stereo unspecified), 7.76 µM.
Same read-out and setting: next, `CC(=O)NCCC(C(=O)NCc1ccccc1)N(C)CCC=C1c2ccccc2CCc2ccccc21` (stereo unspecified): 37.2 µM.

In the next experiment the target is Sodium- and chloride-dependent GABA transporter 1 (Mus musculus) (UniProt P31648). Put plainly: Residual NO711 binding to mouse GAT1 expressed in human HEK293 cell line at 100 uM by MS binding assay relative to control.
Molecule `CN(CCC=C1c2ccccc2-c2ccccc21)C(CCO)C(=O)NCc1ccc(Cl)cc1` (stereo unspecified) showed a residual activity of 91%.
Same read-out and setting: under `CN(CCC=C1c2ccccc2-c2ccccc21)C(CCO)C(=O)NCc1ccc(F)cc1` (stereo unspecified) stands 90%.
The same measure, in the same setting: next, `CN(CCC=C1c2ccccc2-c2ccccc21)C(CCO)C(=O)NCc1ccccc1Cl` (stereo unspecified): 93%; `Cc1ccc(CNC(=O)C(CCO)N(C)CCC=C2c3ccccc3C=Cc3ccccc32)cc1` (stereo unspecified): 55%.
Same read-out and setting: next, `CN(CCC=C1c2ccccc2C=Cc2ccccc21)C(CCO)C(=O)NCc1ccccc1Cl` (stereo unspecified): 69%; `Cc1ccc(CNC(=O)C(CCO)N(C)CCC=C2c3ccccc3-c3ccccc32)cc1` (stereo unspecified): 99%.
`CN(CCC=C1c2ccccc2CCc2ccccc21)C(CCO)C(=O)NCc1ccccc1` (stereo unspecified) returned a residual activity of 51%.
On the same count and under the same terms, under `CN(CCC=C1c2ccccc2-c2ccccc21)C(CCO)C(=O)NCc1ccccc1` (stereo unspecified) stands 75%.
For the molecule `CN(CCC=C1c2ccccc2CCc2ccccc21)C(CCO)C(=O)NCc1ccc(Cl)cc1` (stereo unspecified), the residual activity was 79%.
`CC(=O)NCCC(C(=O)NCc1ccccc1)N(C)CCC=C1c2ccccc2CCc2ccccc21` (stereo unspecified) came in with a residual activity of 77%.

Another experiment addresses T2, Sodium- and chloride-dependent GABA transporter 1. Put plainly: Inhibition of mouse GAT1 expressed in human HEK293 cell line assessed as inhibition of [3H]GABA uptake measured after 40 mins by […]. Type of experiment: cell-based.
As to `O=C(O)[C@@H]1CCCN(CCC=C2c3ccccc3-c3ccccc32)C1`, the IC50 is 2 µM.
The same measure, in the same setting: next, `CN(CCC=C1c2ccccc2-c2ccccc21)C(CCO)C(=O)NCc1ccc(Cl)cc1` (stereo unspecified): 42.7 µM; `CN(CCC=C1c2ccccc2-c2ccccc21)C(CCO)C(=O)NCc1ccc(F)cc1` (stereo unspecified): 37.2 µM.
The same measure, in the same setting: under `Cc1ccc(CNC(=O)C(CCN)N(C)CCC=C2c3ccccc3CCc3ccccc32)cc1` (stereo unspecified) stands 7.24 µM.
Same read-out and setting: under `CN(CCC=C1c2ccccc2CCc2ccccc21)C(CCN)C(=O)NCc1ccccc1` (stereo unspecified) stands 8.13 µM.
As for `CN(CCC=C1c2ccccc2-c2ccccc21)C(CCO)C(=O)NCc1ccccc1Cl` (stereo unspecified), the IC50 was 33.1 µM.
On the same count and under the same terms, under `Cc1ccc(CNC(=O)C(CCO)N(C)CCC=C2c3ccccc3C=Cc3ccccc32)cc1` (stereo unspecified) stands 27.5 µM.
The same measure, in the same setting: under `O=C(O)C1CCCN(CCC=C2c3ccccc3CCc3ccccc32)C1` (stereo unspecified) stands 13.5 µM; under `CN(CCC=C1c2ccccc2C=Cc2ccccc21)C(CCO)C(=O)NCc1ccccc1Cl` (stereo unspecified), 20.9 µM; under `Cc1ccc(CNC(=O)C(CCO)N(C)CCC=C2c3ccccc3-c3ccccc32)cc1` (stereo unspecified), 31.6 µM.
Still for that read-out and setting: under `CN(CCC=C1c2ccccc2CCc2ccccc21)C(CCO)C(=O)NCc1ccccc1` (stereo unspecified) stands 20 µM; under `CN(CCC=C1c2ccccc2-c2ccccc21)C(CCO)C(=O)NCc1ccccc1` (stereo unspecified), 24 µM; under `CN(CCC=C1c2ccccc2CCc2ccccc21)C(CCO)C(=O)NCc1ccc(Cl)cc1` (stereo unspecified), 10 µM.
As to `CC(=O)NCCC(C(=O)NCc1ccccc1)N(C)CCC=C1c2ccccc2CCc2ccccc21` (stereo unspecified), the IC50 is 28.8 µM.

These data come from ChEMBL document CHEMBL4837220, “Development of tricyclic N-benzyl-4-hydroxybutanamide derivatives as inhibitors of GABA transporters mGAT1-4 with anticonvulsant, antinociceptive, and antidepressant activity” (Eur J Med Chem, 2021).
